Reference: patent US20240247080A1, “GLP1/GIP/NPY2 RECEPTOR TRIPLE AGONISTS” (Boehringer Ingelheim International GmbH, priority 2022, published 2024)
Like-named read-outs stand apart in the source and are kept apart here. Starred links: 1 amine or outer side, 2 acyl side, 3 side chain; linkers in the order of their positions; H or OH if unused. Non-standard residues stand in square brackets, D forms with d. Groups on a side chain read outwards from the residue. No end group written: not given here. *: point of attachment. C20 diacid = O=C(O)CCCCCCCCCCCCCCCCCCC(=O)*; C18 diacid = O=C(O)CCCCCCCCCCCCCCCCC(=O)*; γGlu = O=C(O)[C@H](CCC(=O)[*:2])N[*:1]; εLys = N[C@@H](CCCCN[*:1])C(=O)[*:2]; hArg = N=C(N)NCCCC[C@H](N)C(=O)O; Tle = CC(C)(C)[C@H](N)C(=O)O; AEEA = NCCOCCOCC(=O)O; Aib = CC(C)(N)C(=O)O

Tests used:
Format in all cases: cell-based
Conditions in all cases: CreLuc reporter gene assay
[1] = biological target: T1, hNPY2R (Homo sapiens, UniProt P49146); experiment: hNPY2R CreLuc reporter gene assay in 0.5% and 100% plasma
T1 construct: expressed in transfected cells; host or cells: HEK-293 cells carrying a CRE-luciferase reporter gene
T1 sequence (P49146 1-381): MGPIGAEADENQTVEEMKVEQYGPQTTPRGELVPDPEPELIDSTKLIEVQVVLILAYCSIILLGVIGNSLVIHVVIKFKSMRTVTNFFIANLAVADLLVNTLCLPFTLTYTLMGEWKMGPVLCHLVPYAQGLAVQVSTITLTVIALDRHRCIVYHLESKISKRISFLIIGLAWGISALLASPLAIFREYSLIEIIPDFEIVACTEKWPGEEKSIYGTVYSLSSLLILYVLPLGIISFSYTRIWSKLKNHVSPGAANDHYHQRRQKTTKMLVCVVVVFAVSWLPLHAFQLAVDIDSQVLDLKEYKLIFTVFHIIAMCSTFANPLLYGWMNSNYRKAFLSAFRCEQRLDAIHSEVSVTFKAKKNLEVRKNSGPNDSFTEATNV
How it was run: (§1)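 HEK cells (GLP-1R, NPY2R) or CHO cells (GIPR) carrying a CRE-luciferase reporter, incubated 4 h at 37 °C with peptides in HBSS/20 mM HEPES pH 7.4 plus 0.5% human plasma, or in 100% plasma. Luminescence read; EC50 from 8-point variable-slope sigmoid fits.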

[2] = biological target: T2, hGIPR (Homo sapiens, UniProt P48546); experiment: hGIPR CreLuc reporter gene assay in 0.5% and 100% plasma
T2 construct: expressed in transfected cells; host or cells: CHO cells carrying a CRE-luciferase reporter gene
T2 sequence (P48546 22-466): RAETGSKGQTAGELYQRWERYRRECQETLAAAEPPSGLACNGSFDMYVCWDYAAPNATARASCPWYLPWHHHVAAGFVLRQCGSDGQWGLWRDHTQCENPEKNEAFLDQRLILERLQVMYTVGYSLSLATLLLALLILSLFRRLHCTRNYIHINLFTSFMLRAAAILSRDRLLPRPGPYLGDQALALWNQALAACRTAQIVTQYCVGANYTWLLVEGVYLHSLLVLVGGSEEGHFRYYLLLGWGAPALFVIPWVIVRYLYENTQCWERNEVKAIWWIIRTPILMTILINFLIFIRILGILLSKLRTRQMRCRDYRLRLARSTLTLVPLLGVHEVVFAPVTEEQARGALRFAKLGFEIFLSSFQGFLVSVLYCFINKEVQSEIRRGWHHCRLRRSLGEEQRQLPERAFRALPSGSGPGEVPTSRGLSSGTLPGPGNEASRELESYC
How it was run: as §1

[3] = biological target: T3, hGLP1R (Homo sapiens, UniProt P43220); experiment: hGLP1R CreLuc reporter gene assay in 0.5% and 100% plasma
T3 construct: expressed in transfected cells; host or cells: HEK-293 cells carrying a CRE-luciferase reporter gene
How it was run: as §1

[4] = 0.5% human plasma, read-out: hNPY2R 0.5% hP
[5] = 0.5% human plasma, read-out: hGIPR 0.5% hP
[6] = 100% human plasma, read-out: hGIPR 100% hP
[7] = 0.5% human plasma, read-out: hGLP1R 0.5% hP
[8] = 100% human plasma, read-out: hGLP1R 100% hP
[9] = 100% human plasma, read-out: hNPY2R 100% hP

T3 sequence (P43220 24-463): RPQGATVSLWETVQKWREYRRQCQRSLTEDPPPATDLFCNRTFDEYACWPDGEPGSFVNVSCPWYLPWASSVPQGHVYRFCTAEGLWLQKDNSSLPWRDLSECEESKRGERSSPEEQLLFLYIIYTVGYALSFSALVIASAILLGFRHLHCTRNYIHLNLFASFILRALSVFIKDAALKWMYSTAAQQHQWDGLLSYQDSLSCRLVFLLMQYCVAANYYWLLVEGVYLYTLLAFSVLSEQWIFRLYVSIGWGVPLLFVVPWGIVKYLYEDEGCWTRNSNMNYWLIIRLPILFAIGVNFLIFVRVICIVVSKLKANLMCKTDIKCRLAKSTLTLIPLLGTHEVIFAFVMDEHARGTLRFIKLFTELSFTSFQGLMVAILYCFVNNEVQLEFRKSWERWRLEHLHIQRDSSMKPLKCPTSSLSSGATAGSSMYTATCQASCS

Compound	EC50 [1, 4]	EC50 [2, 5]	EC50 [2, 6]	EC50 [3, 7]	EC50 [3, 8]	EC50 [1, 9]
H-Y[Aib]EGTFTSDYSI[Aib]LEKQAQ[Aib]EFVQWLIK([γGlu-γGlu-γGlu-γGlu-C18 diacid])GGPSEGASLRHYYNWLTRQRY-NH2 [Compound 202, Y-Aib-E-G-T-F-T-S-D-Y-S-I-Aib-L-E-K-Q-A-Q-Aib-E-F-V-Q-W-L-I-K(1,3)-GGPSEGASLRHYYNWLTRQRY-NH2.C18DA-gGlu-gGlu-gGlu-gGlu(1,2)]	12.9 nM	0.26 nM	1.81 nM	0.21 nM	10.4 nM	–
H-Y[Aib]EGTFTSDYSI[Aib]LEKQAQ[Aib]AFVEWLIK([AEEA-AEEA-γGlu-γGlu-γGlu-γGlu-C18 diacid])GGPESGASLRHYYNWLTRQRY-NH2 [Compound 163, Y-Aib-E-G-T-F-T-S-D-Y-S-I-Aib-L-E-K-Q-A-Q-Aib-A-F-V-E-W-L-I-K(1,3)-GGPESGASLRHYYNWLTRQRY-NH2.C18DA-gGlu-gGlu-gGlu-gGlu-OEG-OEG(1,2)]	21.3 nM	0.26 nM	0.87 nM	0.1 nM	–	55.2 nM
CC[C@H](C)[C@H](NC(=O)[C@H](CC(C)C)NC(=O)[C@H](Cc1c[nH]c2ccccc12)NC(=O)[C@H](CCC(=O)O)NC(=O)[C@@H](NC(=O)[C@H](Cc1ccccc1)NC(=O)[C@H](C)NC(=O)C(C)(C)NC(=O)[C@H](CCC(N)=O)NC(=O)[C@H](C)NC(=O)[C@H](CCC(N)=O)NC(=O)[C@H](CCCCN)NC(=O)[C@H](CCC(=O)O)NC(=O)[C@H](CC(C)C)NC(=O)C(C)(C)NC(=O)[C@@H](NC(=O)[C@H](CO)NC(=O)[C@H](Cc1ccc(O)cc1)NC(=O)[C@H](CC(=O)O)NC(=O)[C@H](CO)NC(=O)[C@@H](NC(=O)[C@H](Cc1ccccc1)NC(=O)[C@@H](NC(=O)CNC(=O)[C@H](CCC(=O)O)NC(=O)C(C)(C)NC(=O)[C@@H](N)Cc1ccc(O)cc1)[C@@H](C)O)[C@@H](C)O)[C@@H](C)CC)C(C)C)C(=O)N[C@@H](CCCCNC(=O)[C@@H](N)CCCCNC(=O)CC[C@H](NC(=O)CC[C@H](NC(=O)CC[C@H](NC(=O)CC[C@H](NC(=O)CC[C@H](NC(=O)CC[C@H](NC(=O)CCCCCCCCCCCCCCCCCCC(=O)O)C(=O)O)C(=O)O)C(=O)O)C(=O)O)C(=O)O)C(=O)O)C(=O)NCC(=O)NCC(=O)N1CCC[C@H]1C(=O)N[C@@H](CO)C(=O)N[C@@H](CO)C(=O)NCC(=O)N[C@@H](C)C(=O)N[C@@H](CO)C(=O)N[C@@H](CC(C)C)C(=O)N[C@@H](CCCNC(=N)N)C(=O)N[C@@H](Cc1c[nH]cn1)C(=O)N[C@@H](Cc1ccc(O)cc1)C(=O)N[C@@H](CC(C)C)C(=O)N[C@@H](CC(N)=O)C(=O)N[C@@H](Cc1c[nH]c2ccccc12)C(=O)N[C@@H](CC(C)C)C(=O)N[C@H](C(=O)N[C@@H](CCCNC(=N)N)C(=O)N[C@@H](CCC(N)=O)C(=O)N[C@@H](CCCNC(=N)N)C(=O)N[C@@H](Cc1ccc(O)cc1)C(N)=O)[C@@H](C)O [Compound 86, Y-Aib-E-G-T-F-T-S-D-Y-S-I-Aib-L-E-K-Q-A-Q-Aib-A-F-V-E-W-L-I-K(1,3)-GGPSSGASLRHYLNWLTRQRY-NH2.C20DA-gGlu-gGlu-gGlu-gGlu-gGlu-gGlu-eLys(1,2)]	–	0.48 nM	1.61 nM	0.25 nM	–	53.1 nM
H-Y[Aib]EGTFTSDYSI[Aib]LEKQAQ[Aib]AFVEWLIK([εLys-γGlu-γGlu-γGlu-γGlu-γGlu-γGlu-C20 diacid])GGPSSGAS[Aib]RHYYNWLT[hArg]QR[dY]-NH2 [Compound 26, Y-Aib-E-G-T-F-T-S-D-Y-S-I-Aib-L-E-K-Q-A-Q-Aib-A-F-V-E-W-L-I-K(1,3)-G-G-P-S-S-G-A-S-Aib-R-H-Y-Y-N-W-L-T-hArg-Q-R-DTyr-NH2.C20DA-gGlu-gGlu-gGlu-gGlu-gGlu-gGlu-eLys(1,2)]	> 100 nM	0.09 nM	0.7 nM	0.07 nM	1.18 nM	–
H-Y[Aib]EGTFTSDYSI[Aib]LEKQAQ[Aib]AFVEWLIK([εLys-γGlu-γGlu-γGlu-γGlu-γGlu-γGlu-C20 diacid])GGPSSGASLR[Tle]YYNWLTRQRY-NH2 [Compound 119, Y-Aib-E-G-T-F-T-S-D-Y-S-I-Aib-L-E-K-Q-A-Q-Aib-A-F-V-E-W-L-I-K(1,3)-G-G-P-S-S-G-A-S-L-R-Tle-Y-Y-N-W-L-T-R-Q-R-Y-NH2.C20DA-gGlu-gGlu-gGlu-gGlu-gGlu-gGlu-eLys(1,2)]	23.1 nM	0.63 nM	–	0.26 nM	–	–
H-Y[Aib]EGTFTSDYSI[Aib]LEKQAQ[Aib]AFVEWLIK([AEEA-AEEA-γGlu-γGlu-γGlu-γGlu-C18 diacid])GGPSSGASLRHYYNWLTRQRY-NH2 [Compound 254, Y-Aib-E-G-T-F-T-S-D-Y-S-I-Aib-L-E-K-Q-A-Q-Aib-A-F-V-E-W-L-I-K(1,3)-GGPSSGASLRHYYNWLTRQRY-NH2.C18DA-gGlu-gGlu-gGlu-gGlu-OEG-OEG(1,2)]	17.8 nM	0.22 nM	0.63 nM	0.07 nM	1.69 nM	30.9 nM
H-Y[Aib]EGTFTSDYSI[Aib]LEKQAQ[Aib]AFVQWLIK([εLys-γGlu-γGlu-γGlu-γGlu-γGlu-γGlu-C20 diacid])GGPSSYVSLRHYYNWLTRQRY-NH2 [Compound 15, Y-Aib-E-G-T-F-T-S-D-Y-S-I-Aib-L-E-K-Q-A-Q-Aib-A-F-V-Q-W-L-I-K(1,3)-GGPSSYVSLRHYYNWLTRQRY-NH2.C20DA-gGlu-gGlu-gGlu-gGlu-gGlu-gGlu-eLys(1,2)]	–	0.32 nM	2.43 nM	0.16 nM	–	15.4 nM
H-Y[Aib]EGTFTSDYSI[Aib]LEKQAQ[Aib]EFVEWLIK([εLys-γGlu-γGlu-γGlu-γGlu-γGlu-C18 diacid])GGPSSGASLRHYYNWLTRQRY-NH2 [Compound 159, Y-Aib-E-G-T-F-T-S-D-Y-S-I-Aib-L-E-K-Q-A-Q-Aib-E-F-V-E-W-L-I-K(1,3)-GGPSSGASLRHYYNWLTRQRY-NH2.C18DA-gGlu-gGlu-gGlu-gGlu-gGlu-eLys(1,2)]	13.8 nM	0.35 nM	0.91 nM	0.19 nM	–	34.6 nM
H-Y[Aib]EGTFTSDYSI[Aib]LEKQAQ[Aib]EFVEWLIK([εLys-γGlu-γGlu-γGlu-γGlu-γGlu-γGlu-C20 diacid])GGPSEGASLRHYYNWLTRQRY-NH2 [Compound 275, Y-Aib-E-G-T-F-T-S-D-Y-S-I-Aib-L-E-K-Q-A-Q-Aib-E-F-V-E-W-L-I-K(1,3)-GGPSEGASLRHYYNWLTRQRY-NH2.C20DA-gGlu-gGlu-gGlu-gGlu-gGlu-gGlu-eLys(1,2)]	19.9 nM	0.27 nM	1.75 nM	0.5 nM	–	–
Y[Aib]EGTFTSDYSI[Aib]LEKQAQ[Aib]AFVEWLIK([AEEA-AEEA-γGlu-γGlu-γGlu-γGlu-γGlu-C20 diacid])GGPSSPASLRHYYNWLTRQRY-NH2 [Compound 120, Y-Aib-E-G-T-F-T-S-D-Y-S-I-Aib-L-E-K-Q-A-Q-Aib-A-F-V-E-W-L-I-K(1,3)-GGPSSPASLRHYYNWLTRQRY-NH2.C20DA-gGlu-gGlu-gGlu-gGlu-gGlu-OEG-OEG(1,2)]	10.7 nM	0.34 nM	1.44 nM	0.11 nM	–	39.2 nM
H-Y[Aib]EGTFTSDYSI[Aib]LEKQAQ[Aib]AFVEWLIK([εLys-γGlu-γGlu-γGlu-γGlu-γGlu-γGlu-C20 diacid])GGPSEPASLRHYYNWLTRQRY-NH2 [Compound 233, Y-Aib-E-G-T-F-T-S-D-Y-S-I-Aib-L-E-K-Q-A-Q-Aib-A-F-V-E-W-L-I-K(1,3)-GGPSEPASLRHYYNWLTRQRY-NH2.C20DA-gGlu-gGlu-gGlu-gGlu-gGlu-gGlu-eLys(1,2)]	12.6 nM	0.08 nM	0.75 nM	0.17 nM	1.7 nM	–
Y[Aib]EGTFTSDYSI[Aib]LEKQAQ[Aib]AFVQWLIK([Glu-γGlu-γGlu-γGlu-γGlu-C20 diacid])GGPSEGASLRHYYNWLTRQRY-NH2 [Compound 243, Y-Aib-E-G-T-F-T-S-D-Y-S-I-Aib-L-E-K-Q-A-Q-Aib-A-F-V-Q-W-L-I-K(1,3)-GGPSEGASLRHYYNWLTRQRY-NH2.C20DA-gGlu-gGlu-gGlu-gGlu-Glu(1,2)]	–	0.54 nM	–	0.12 nM	–	50.6 nM
